“Also recorded” adds a separate entry of the source. Read-outs that look alike come from different tables or passages of the source.
What was measured:
[1] = test system: S. homoeocarpa; experiment: Zone of inhibition assay on PDA plates; assay type: cell-based, Scerotinia homoeocarpa
Experimental: (§1) To test the efficacy of calcium propionate (CaP) against the four microbes listed above, zone of inhibition assays were performed. Wells were bored in potato dextrose agarose (PDA) plates then amended with […] calcium propionate at concentrations of 0.1%, 0.2%, 0.3%, 0.4%, and 0.5% (w/v). Control plates were amended with […] dH2O. Plates were inoculated using plugs from active cultures. Growth patterns were observed over seven days. Representative results with M. poae are shown at three days following inoculation (FIG. 1A) and seven days following inoculation (FIG. 1B).
(§2) The zone of inhibition assays described in Example 1 were performed using calcium propionate doses of 0.5%, 1%, 2%, 3%, and 4% (w/v). Growth diameter was recorded at 2, 5, and 7 days post inoculation. The data shown in Table 1 represent the average±standard deviation (SD) of two replicate plates for each strain tested.
(§3) Zone of inhibition assays using PDA plates amended with 5-12% (w/v) calcium propionate were performed as described above. As a control, plates were amended with a composition comprising propiconazole, a commonly used fungicidal treatment for microbe infection of turfgrass, sold under the trademark Banner MaxxII®. Growth diameter was recorded for 13 days post inoculation. The data shown in Table 2 represent the average±standard deviation (SD) of three replicate plates for each strain tested. Inoculants of S. homoeocarpa, M. poae, and R. solani generally grow to luxuriant culture, covering the entire surface of the plate (8.5 cm growth) in 7 days.

[2] = test system: M. poae; assay type: cell-based, Magnaporthe poae
[3] = test system: G. graminis; experiment: Zone of inhibition assay on PDA plates; assay type: cell-based, Gaeumannomyces graminis
Experimental: as §1, §2, §3

[4] = test system: R. solani; experiment: Plug transfer to PDA plates without calcium propionate (fungistatic or fungicidal); assay type: cell-based, Rhizoctonia solani
[5] = test system: S. homoeocarpa; experiment: Disrupted well-established culture transferred to amended MEB; assay type: cell-based, Scerotinia homoeocarpa; details: MEB with 1%, 2%, 5% or 10% (w/v) calcium propionate; five days
Excerpt: To examine the effect of calcium propionate on well-established cultures of S. homoeocarpa and M. poae, MEB was inoculated with agarose plugs as previously described. Cultures were allowed to grow for 10 days to establish a robust hyphal mat. After 10 days, hyphal mats were disrupted by pipetting to break up mycelium (disrupted culture). One milliliter of disrupted culture was transferred to MEB amended with 1%, 2%, 5%, or 10% (w/v) calcium propionate. MEB without calcium propionate was used as a control. Cultures were allowed to grow for five days following inoculation with disrupted mycelium.

[6] = test system: M. poae; assay type: cell-based, Magnaporthe poae; remark: listed apart in the source
[7] = test system: R. solani; experiment: Established liquid cultures, two days calcium propionate then washout; assay type: cell-based, Rhizoctonia solani
Experimental: To further examine the impact of calcium propionate on established liquid cultures, MEB was inoculated by plug transfer and cultures were allowed to grow for one to six days. Following this, calcium propionate was added to active cultures to a final concentration of 1%, 2%, or 5% (w/v); control cultures had no calcium propionate. Calcium propionate was then added to established one to six day old cultures and cultures were allowed to grow in the presence of calcium propionate for two days, after which, calcium propionate was washed out and cultures were returned to MEB only. Growth following calcium propionate washout was recorded over 14 days.

[8] = test system: F. oxysporum; experiment: Fungal plugs on YPA or PDA amended with CaP; assay type: cell-based, Fusarium oxysporum; details: seven days, data not shown
Experimental: Cultures of F. oxysporum were grown on PDA medium until luxuriant. To test the effect of calcium propionate (CaP), fungal plugs were transferred to YPA or PDA amended with CaP and growth was monitored for seven days. YPA plates were amended with 1%, 4%, or 15% CaP.

[9] = test system: dollar spot; experiment: Golf Course 1: infected live turfgrass, visual inspection for dollar spot; assay type: in vivo, Scerotinia homoeocarpa
Experimental: Calcium propionate was dissolved in water to form a 5% (w/v) solution. […] Zone 1 was left untreated, Zone 2 was treated with 2.5 grams calcium propionate per square meter, Zone 3 was treated with 5 grams of calcium propionate per square meter, and Zone 4 was treated with 10 grams of calcium propionate per square meter. The turfgrass was comprised primarily of Festuca rubra. The calcium propionate 5% (w/v) solution was sprayed onto the turfgrass.
The four zones were visually inspected for dollar spot after 10 days. […] In contrast, dollar spot could, still be visually detected in untreated Zone 1.
Thereafter, all of the zones (1-4) were treated with 5 grams of calcium propionate per square meter. The calcium propionate 5% (w/v) solution was sprayed onto the turfgrass every 10 to 14 days.

[10] = test system: turfgrass; experiment: Golf Course 2: appearance of treated turfgrass; assay type: in vivo, Agrostis capillaris; details: 3-4 grams per square meter every 10 days; 10 days following initial application
Experimental: Calcium propionate was dissolved in water to form a 5% (w/v) solution. […] The turfgrass was comprised primarily of Agrostis capillaris. The calcium propionate 5% (w/v) solution was sprayed onto the turfgrass at a concentration of 3-4 grams per square meter every 10 days.

[11] = 2-4% (w/v) calcium propionate, repeat, data not shown
[12] = 5-12% (w/v) calcium propionate, day 2, average ± SD of three plates
[13] = 5-12% (w/v) calcium propionate, day 3, average ± SD of three plates
[14] = 5-12% (w/v) calcium propionate, day 6, average ± SD of three plates
[15] = 5-12% (w/v) calcium propionate, day 7, average ± SD of three plates
[16] = 5-12% (w/v) calcium propionate, day 10, average ± SD of three plates
[17] = 5-12% (w/v) calcium propionate, day 13, average ± SD of three plates
[18] = wells 0.1-0.5% (w/v) calcium propionate, observed over seven days
[19] = wells 0.5-4% (w/v) calcium propionate, day 2, average ± SD of two plates
[20] = wells 0.5-4% (w/v) calcium propionate, day 5, average ± SD of two plates
[21] = wells 0.5-4% (w/v) calcium propionate, day 7, average ± SD of two plates
[22] = wells 0.5-4% (w/v) calcium propionate, seven day growth period
[23] = 1%, 2% or 5% (w/v), established one to six day old cultures, two days
[24] = all concentrations tested (1-5% w/v)

## CCC(=O)[O-].CCC(=O)[O-].[Ca+2] [calcium propionate]
[1]; [11]
  growth inhibition in repeated experiments, S. homoeocarpa: mixed
[1]; [12]
  Growth, S. homeocarpa: 2.8 ± 0.2 cm
[1]; [13]
  Growth, S. homeocarpa: 3.5 ± 0.3 cm
[1]; [14]
  Growth, S. homeocarpa: 3.8 ± 0.1 cm
[1]; [15]
  Growth, S. homeocarpa: 4.3 ± 0.3 cm
[1]; [16]
  Growth, S. homeocarpa: 6.2 ± 0.3 cm
[1]; [17]
  Growth, S. homeocarpa: 7.8 ± 0.6 cm
[1]; [18]
  growth inhibition, S. homoeocarpa: no growth inhibition was observed
[1]; [19]
  Growth, S. homeocarpa: 1.9 ± 0.3 cm
[1]; [20]
  Growth, S. homeocarpa: 4.5 ± 0.5 cm
[1]; [21]
  Growth, S. homeocarpa: 6.08±0.57 cm
[1]; wells 0.5-4% (w/v) calcium propionate, day 7, average ± SD of two plates, listed as Cap
  Growth, S. homeocarpa: 4.5 ± 0.6 cm
[1]; [22]
  growth inhibition, S. homoeocarpa: clear growth inhibition
[2]; [11]
  growth inhibition in repeated experiments, M. poae: mixed
[2]; [12]
  Growth, M. Poae: 1.1 ± 0.1 cm
[2]; [13]
  Growth, M. Poae: 1.5 ± 0.2 cm
[2]; [14]
  Growth, M. Poae: 2.1 ± 0.4 cm
[2]; [15]
  Growth, M. Poae: 3.1±0.4 cm
[2]; [16]
  Growth, M. Poae: 5.8 ± 0.7 cm
[2]; [17]
  Growth, M. Poae: 8.2 ± 0.5 cm
[2]; [18]
  growth inhibition, M. poae: no growth inhibition was observed
[2]; [19]
  Growth, M. Poae: 1.5 ± 0.2 cm
[2]; [20]
  Growth, M. Poae: 4.3 ± 0.1 cm
[2]; [21]
  Growth, M. Poae: 6.9 ± 0.1 cm
[2]; [22]
  growth inhibition, M. poae: clear growth inhibition; also recorded: inhibited to a similar degree
[3]; [12]
  Growth, G. graminis: 1.2 ± 0.3 cm
[3]; [13]
  Growth, G. graminis: 2.2 ± 0.3 cm
[3]; [14]
  Growth, G. graminis: 2.7 ± 0.3 cm
[3]; [15]
  Growth, G. graminis: 4.0±0.6 cm
[3]; [16]
  Growth, G. graminis: 5.9 ± 0.5 cm
[3]; [17]
  Growth, G. graminis: 8.3 ± 0.3 cm
[3]; [18]
  growth inhibition, G. graminis: no growth inhibition was observed
[3]; wells 0.5-4% (w/v) calcium propionate, 2 and 5 days post inoculation
  growth inhibition, G. graminis: growth inhibition
[3]; wells 0.5-4% (w/v) calcium propionate, 7 days post inoculation
  growth difference versus control plates, G. graminis: no growth difference was observed
[3]; [19]
  Growth, G. graminis: 1.6 ± 0.1 cm
[3]; [20]
  Growth, G. graminis: 4.7 ± 0.2 cm
[3]; [21]
  Growth, G. graminis: 7 ± 0.1 cm
[4]
  concentration required to achieve a fungicidal effect on R. solani: 10-12 % (w/v)
[4]; 5% (w/v) calcium propionate
  fungistatic or fungicidal effect, R. solani: fungistatic rather than fungicidal
[4]; plugs from 5% and 7.5% (w/v) calcium propionate plates, 6-7 days following transfer
  growth on unamended PDA after plug transfer, R. solani: luxuriant growth
[4]; plugs from 10% and 12% (w/v) calcium propionate plates
  growth on unamended PDA after plug transfer, R. solani: did not grow
[5]
  growth of disrupted culture, S. homoeocarpa: No growth was observed
[6]; 1% or 2% (w/v) calcium propionate
  growth recovery over 14 days after removal, M. poae: varying degrees of growth recovery
[6]; [23]
  growth while calcium propionate was present, M. poae: growth was inhibited
[6]; 5% (w/v) treatment
  growth recovery over 14 days after removal, M. poae: no growth recovery was observed
[6]; [24]
  growth three days following removal of calcium propionate, M. poae: continued growth inhibition
[7]; [23]
  growth while calcium propionate was present, R. solani: growth was inhibited
[7]; [24]
  growth inhibition over two weeks after removal, R. solani: some minor growth inhibition
[7]; concentrations examined (1-5% w/v)
  growth three days following removal of calcium propionate, R. solani: robust growth was observed
[8]; YPA amended with 1% CaP
  F. oxysporum growth: not impacted
[8]; YPA amended with 4% or 15% CaP
  F. oxysporum growth: unable to grow
[9]; Zone 2: 2.5 grams per square meter, 5% (w/v) solution sprayed, after 10 days
  visual detection of dollar spot: could no longer be visually detected
[9]; Zone 3: 5 grams per square meter, 5% (w/v) solution sprayed, after 10 days
  visual detection of dollar spot: could no longer be visually detected
[9]; Zone 4: 10 grams per square meter, 5% (w/v) solution sprayed, after 10 days
  visual detection of dollar spot: could no longer be visually detected
[9]; zones 1-4, 5 grams per square meter every 10 to 14 days, several months (late summer to early spring)
  visual detection of dollar spot: could not be visually detected
[10]
  appearance of the turfgrass: appeared healthy

Source: patent US12408664B2 (priority 2018, dated 2025)
